Activity calls are given as the source filed them. The calls are words filed in the database; no cut-off is given here.
Legend:
[1] = target: HSP90/Cyclin-dependent kinase 4 (Mus musculus) (UniProt P30285+P07901+P11499); experiment: HEMTAC activity at HSP90/CDK4 in mouse B16-F10 cells assessed as induction of CDK4 degradation at 0.01 to 1 uM measured after 24 hrs by Western blot analysis; type: cell-based; conditions: dose 0.01-1 µM
[2] = target: HSP90/Cyclin-dependent kinase 6 (Mus musculus) (UniProt P07901+Q64261+P11499); experiment: HEMTAC activity at HSP90/CDK6 in mouse B16-F10 cells assessed as induction of […] degradation at 0.01 to 1 uM measured after 24 hrs by Western blot analysis; type: cell-based; conditions: dose 0.01-1 µM
A549 = experiment: Cytotoxicity against human A549 cells assessed as inhibition of cell growth incubated for 72 hrs by CCK-8 assay; type: functional, cell-based; conditions: A549, 72 h
HFF-1 = experiment: Cytotoxicity against human HFF-1 cells assessed as reduction of cell viability incubated for 72 hrs by CCK-8 assay; type: toxicity, cell-based; conditions: hff-1, 72 h
B16-F10 [3] = experiment: Cytotoxicity against mouse B16-F10 cells assessed as inhibition of cell growth incubated for 72 hrs by CCK-8 assay; type: functional, cell-based; conditions: B16-F10, 72 h
B16-F10 [4] = experiment: Induction of apoptosis in mouse B16-F10 cells assessed as live cells at 125 nM incubated for 48 hrs by Annexin V-FITC/PI staining based flow cytometry analysis (reference value: 92.85 %); type: functional
A-375 = experiment: Cytotoxicity against human A-375 cells assessed as inhibition of cell growth incubated for 72 hrs by CCK-8 assay; type: functional, cell-based; conditions: A-375, 72 h
HepG2 = experiment: Cytotoxicity against human HepG2 cells assessed as inhibition of cell growth incubated for 72 hrs by CCK-8 assay; type: functional, cell-based; conditions: HepG2, 72 h
MDA-MB-231 = experiment: Cytotoxicity against human MDA-MB-231 cells assessed as inhibition of cell growth incubated for 72 hrs by CCK-8 assay; type: functional, cell-based; conditions: MDA-MB-231, 72 h
B16-F10 [5] = experiment: Induction of apoptosis in mouse B16-F10 cells assessed as early apoptotic cells at 125 nM incubated for 48 hrs by Annexin V-FITC/PI staining based flow cytometry analysis (reference value: 3.42%); type: functional
B16-F10 [6] = experiment: Induction of apoptosis in mouse B16-F10 cells assessed as late apoptotic cells at 125 nM incubated for 48 hrs by Annexin V-FITC/PI staining based flow cytometry analysis (reference value: 1.97%); type: functional
B16-F10 [7] = experiment: Induction of apoptosis in mouse B16-F10 cells assessed as dead cells at 125 nM incubated for 48 hrs by Annexin V-FITC/PI staining based flow cytometry analysis (reference value: 1.75%); type: functional
B16-F10 [8] = experiment: Induction of apoptosis in mouse B16-F10 cells assessed as live cells at 250 nM incubated for 48 hrs by Annexin V-FITC/PI staining based flow cytometry analysis (reference value: 92.85 %); type: functional
B16-F10 [9] = experiment: Induction of apoptosis in mouse B16-F10 cells assessed as early apoptotic cells at 250 nM incubated for 48 hrs by Annexin V-FITC/PI staining based flow cytometry analysis (reference value: 3.42%); type: functional
B16-F10 [10] = experiment: Induction of apoptosis in mouse B16-F10 cells assessed as late apoptotic cells at 250 nM incubated for 48 hrs by Annexin V-FITC/PI staining based flow cytometry analysis (reference value: 1.97%); type: functional
B16-F10 [11] = experiment: Induction of apoptosis in mouse B16-F10 cells assessed as dead cells at 250 nM incubated for 48 hrs by Annexin V-FITC/PI staining based flow cytometry analysis (reference value: 1.75%); type: functional
B16-F10 [12] = experiment: Induction of cell cycle arrest in mouse B16-F10 cells assessed as accumulation of cells at G1 phase at 125 nM incubated for 24 hrs by RNase/PI staining based flow cytometry analysis (reference value: 68.89%); type: functional
B16-F10 [13] = experiment: Induction of cell cycle arrest in mouse B16-F10 cells assessed as accumulation of cells at G2 phase at 125 nM incubated for 24 hrs by RNase/PI staining based flow cytometry analysis (reference value: 16.13%); type: functional
B16-F10 [14] = experiment: Induction of cell cycle arrest in mouse B16-F10 cells assessed as accumulation of cells at S phase at 125 nM incubated for 24 hrs by RNase/PI staining based flow cytometry analysis (reference value: 12.45%); type: functional
B16-F10 [15] = experiment: Induction of cell cycle arrest in mouse B16-F10 cells assessed as accumulation of cells at G1 phase at 250 nM incubated for 24 hrs by RNase/PI staining based flow cytometry analysis (reference value: 68.89%); type: functional
B16-F10 [16] = experiment: Induction of cell cycle arrest in mouse B16-F10 cells assessed as accumulation of cells at G2 phase at 250 nM incubated for 24 hrs by RNase/PI staining based flow cytometry analysis (reference value: 16.13%); type: functional
B16-F10 [17] = experiment: Induction of cell cycle arrest in mouse B16-F10 cells assessed as accumulation of cells at S phase at 250 nM incubated for 24 hrs by RNase/PI staining based flow cytometry analysis (reference value: 12.45%); type: functional
[18] = Acute toxicity in zebra fish embryos incubated for 72 hrs; parameters: species or system Danio rerio; conditions: zebrafish
[19] = Toxicity in C57BL/6J mouse implanted with mouse B16-F10 cells at 20 mg/kg, ip administered once daily for 2 weeks and measured every 2 days; type: organism-based; conditions: in vivo, 336 h
[20] = target: Heat shock protein HSP 90-alpha (Homo sapiens, UniProt P07900); experiment: Binding affinity to CM5 sensor chip immobilized human HSP90alpha assessed as dissociation constant by SPR analysis
[21] = target: HSP90/Cyclin-dependent kinase 4 (Mus musculus, UniProt P07901+P11499+P30285); experiment: HEMTAC activity at HSP90/CDK4 in mouse B16-F10 cells assessed as induction of CDK4 degradation incubated for 24 hrs by Western blot analysis; type: cell-based
[22] = target: HSP90/Cyclin-dependent kinase 6 (Mus musculus, UniProt P07901+P11499+Q64261); experiment: HEMTAC activity at HSP90/CDK6 in mouse B16-F10 cells assessed as induction of […] degradation incubated for 24 hrs by Western blot analysis; type: cell-based
[23] = target: Protein cereblon/Cyclin-dependent kinase 4 (Mus musculus) (UniProt P30285+Q8C7D2); experiment: Protac activity at CRBN/CDK4 in mouse B16-F10 cells assessed as induction of CDK4 degradation at 0.05 uM incubated for 24 hrs by Western blot analysis; type: cell-based
[24] = target: Protein cereblon/Cyclin-dependent kinase 6 (Mus musculus) (UniProt Q8C7D2+Q64261); experiment: Protac activity at CRBN/CDK6 in mouse B16-F10 cells assessed as induction of CDK4 degradation at 0.05 uM incubated for 24 hrs by Western blot analysis; type: cell-based

Protein cereblon/Cyclin-dependent kinase 4 (Mus musculus), sequence (P30285 whole entry, looked up): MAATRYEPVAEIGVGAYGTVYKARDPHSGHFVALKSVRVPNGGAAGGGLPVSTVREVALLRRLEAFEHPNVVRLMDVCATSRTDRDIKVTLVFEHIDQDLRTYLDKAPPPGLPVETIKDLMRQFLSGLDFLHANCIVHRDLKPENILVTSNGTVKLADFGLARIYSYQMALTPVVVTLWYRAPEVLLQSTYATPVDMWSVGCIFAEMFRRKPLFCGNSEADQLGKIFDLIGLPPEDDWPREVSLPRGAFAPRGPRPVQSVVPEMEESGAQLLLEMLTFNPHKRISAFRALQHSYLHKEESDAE
Protein cereblon/Cyclin-dependent kinase 4 (Mus musculus), sequence (Q8C7D2 whole entry, looked up): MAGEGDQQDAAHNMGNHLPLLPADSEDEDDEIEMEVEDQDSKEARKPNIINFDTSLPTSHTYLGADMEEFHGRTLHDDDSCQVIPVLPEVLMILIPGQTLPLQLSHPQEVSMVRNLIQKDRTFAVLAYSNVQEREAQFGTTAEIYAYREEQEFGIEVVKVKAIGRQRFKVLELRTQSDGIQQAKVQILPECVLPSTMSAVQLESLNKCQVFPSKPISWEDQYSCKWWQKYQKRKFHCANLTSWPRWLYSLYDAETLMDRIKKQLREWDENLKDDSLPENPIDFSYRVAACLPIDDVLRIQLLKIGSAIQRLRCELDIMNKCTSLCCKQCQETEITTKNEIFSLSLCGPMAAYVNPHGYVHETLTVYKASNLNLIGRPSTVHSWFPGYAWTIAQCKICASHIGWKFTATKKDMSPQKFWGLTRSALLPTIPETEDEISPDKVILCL

Row | SMILES | Kd [20] [nM] | EC50 [21] [nM] | EC50 [22] [nM] | IC50 (A549) [nM] | Activity (HFF-1) | IC50 (B16-F10 [3]) [nM] | IC50 (A-375) [nM] | IC50 (HepG2) [nM] | IC50 (MDA-MB-231) [nM] | also measured
1 | COc1c(C)cnc(Cn2cc(C#CCCn3cc(CNC(=O)CN4CCN(c5ccc(Nc6ncc7c(C)c(C(C)=O)c(=O)n(C8CCCC8)c7n6)nc5)CC4)nn3)c3c(Cl)nc(NC(C)=O)nc32)c1C | – | – | – | – | – | – | – | – | – | Activity [1]: inactive; Activity [2]: inactive
2 | COc1c(C)cnc(Cn2cnc3c(Cl)nc(N)nc32)c1C [BIIB021] | – | – | – | 134 | Toxic | 176 | 253 | 113 | 339 | Activity (B16-F10 [4]): 78.06%; Activity (B16-F10 [5]): 13.64%; Activity (B16-F10 [6]): 6.27%; Activity (B16-F10 [7]): 2.03%; Activity (B16-F10 [8]): 68.27%; Activity (B16-F10 [9]): 16.92%; Activity (B16-F10 [10]): 12.55%; Activity (B16-F10 [11]): 2.26%; Activity (B16-F10 [12]): 73.13%; Activity (B16-F10 [13]): 14.09%; Activity (B16-F10 [14]): 12.26%; Activity (B16-F10 [15]): 77.76%; Activity (B16-F10 [16]): 18.95%; Activity (B16-F10 [17]): 2.62%; LC50 at 72 h [18]: < 1000 nM; Activity [19]: Non-Toxic
3 | CC(=O)c1c(C)c2cnc(Nc3ccc(N4CCNCC4)cn3)nc2n(C2CCCC2)c1=O [PALBOCICLIB] | – | – | – | > 10000 | Non-Toxic | > 10000 | > 10000 | > 10000 | > 10000 | Activity (B16-F10 [4]): 86.8%; Activity (B16-F10 [5]): 2.55%; Activity (B16-F10 [6]): 5.31%; Activity (B16-F10 [7]): 5.34%; Activity (B16-F10 [8]): 89.12%; Activity (B16-F10 [9]): 2.53%; Activity (B16-F10 [10]): 5.51%; Activity (B16-F10 [11]): 2.84%; Activity (B16-F10 [12]): 72.84%; Activity (B16-F10 [13]): 13.57%; Activity (B16-F10 [14]): 13.29%; Activity (B16-F10 [15]): 74.4%; Activity (B16-F10 [16]): 15.63%; Activity (B16-F10 [17]): 9.98%; LC50 at 72 h [18]: > 100000 nM
4 | CC(=O)c1c(C)c2cnc(Nc3ccc(N4CCN(CCCCNC(=O)COc5cccc6c5C(=O)N(C5CCC(=O)NC5=O)C6=O)CC4)cn3)nc2n(C2CCCC2)c1=O (configuration not stated) | – | – | – | – | – | – | – | – | – | Activity [23]: Active; Activity [24]: Active
5 | COc1c(C)cnc(Cn2cc(C#CCCn3cc(C(=O)NCCOCCOCCNC(=O)CN4CCN(c5ccc(Nc6ncc7c(C)c(C(C)=O)c(=O)n(C8CCCC8)c7n6)nc5)CC4)nn3)c3c(Cl)nc(N)nc32)c1C | 18.7 | 268 | 245 | 3550 | Non-Toxic | 1000 | 1840 | 2540 | 1140 | –

Second part, led by results:

Row | Kd [20] [nM] | EC50 [21] [nM] | EC50 [22] [nM] | SMILES | IC50 (A549) [nM] | Activity (HFF-1) | IC50 (B16-F10 [3]) [nM] | IC50 (A-375) [nM] | IC50 (HepG2) [nM] | IC50 (MDA-MB-231) [nM] | also measured
6 | 460 | 110 | 105 | COc1c(C)cnc(Cn2cc(C#CCCn3cc(C(=O)N4CCN(c5ccc(Nc6ncc7c(C)c(C(C)=O)c(=O)n(C8CCCC8)c7n6)nc5)CC4)nn3)c3c(Cl)nc(N)nc32)c1C | 2440 | Non-Toxic | 546 | 293 | 1710 | > 10000 | –
7 | 67.5 | 446 | 325 | COc1c(C)cnc(Cn2cc(C#CCCn3cc(C(=O)NCCNC(=O)CN4CCN(c5ccc(Nc6ncc7c(C)c(C(C)=O)c(=O)n(C8CCCC8)c7n6)nc5)CC4)nn3)c3c(Cl)nc(N)nc32)c1C | > 10000 | Non-Toxic | 6820 | 7640 | > 10000 | 3630 | –
8 | 306 | > 500 | 478 | COc1c(C)cnc(Cn2cc(C#CCCn3cc(C(=O)NCCOCCNC(=O)CN4CCN(c5ccc(Nc6ncc7c(C)c(C(C)=O)c(=O)n(C8CCCC8)c7n6)nc5)CC4)nn3)c3c(Cl)nc(N)nc32)c1C | 8890 | Non-Toxic | 7880 | 6340 | 3760 | 1850 | –
9 | 8.39 | 96 | 88 | COc1c(C)cnc(Cn2cc(C#CCCNC(=O)CN3CCN(c4ccc(Nc5ncc6c(C)c(C(C)=O)c(=O)n(C7CCCC7)c6n5)nc4)CC3)c3c(Cl)nc(N)nc32)c1C | 607 | Non-Toxic | 821 | 906 | 547 | > 10000 | –

Reference: ChEMBL document CHEMBL5316290, “Targeted Protein Degradation Induced by HEMTACs Based on HSP90” (J Med Chem, 2023)
